Reference: patent US5196421A, “Excitatory amino acid receptor antagonists in methods for the use thereof” (priority 1992, dated 1993)

How the values were obtained:
[1] = molecular target: T1, Strychnine-Insensitive [^3 H]Glycine Binding Sites, washed membranes of rat brain cortex (Rattus norvegicus, UniProt P35439); test: biochemical; settings: 1 h, read-out: [^3 H]-Glycine Binding % DSPL10 @ 10 μM, 10 μM test compound, 60 minutes on ice
T1 construct: washed membranes of rat brain cortex; from tissue; host or cells: brain cortex membranes, male Sprague-Dawley rats (150-175 g)
Method: (§1) Referring to Table IV, there are shown the results obtained in testing a representative number of these compounds. In Table IV, the activity of the compounds for EAA receptor binding is indicated. Compounds were evaluated for their ability to displace [^3 H]-CGS191755, [^3 H]-glycine, [^3 H]-AMPA and [^3 H]-kainate at a screening concentration of 10 μM.
(§2) Binding assays, except for glycine binding, were performed in accordance with the methods described in Schoepp et al., J. Pharmacology and Exp. Therap., Vol. 255, No. 3, pp. 1301-1308 (1990). For all binding assays, male Sprague-Dawley rats (150-175 g) were used. Displacement of the specific binding of ^3 H]CGS19755 (10 nM) to Triton-X-treated synaptosomal membranes of rat forebrain was used to determine NMDA receptor affinity. Nonspecific binding was determined using 10 μM L-glutamate. Samples were incubated in an ice bath for 30 minutes, and bound ligand was separated from the free ligand by rapid filtration through Whatman GF/B glass fiber filters.
The compounds were examined for their ability to displace [^3 H]-glycine from washed membranes of rat brain cortex according to the methods of Shinohara et al., "Ontogeny of Strychnine-Insensitive [^3 H]Glycine Binding Sites in Rat Forebrain", Neurosci. Lett. 105 (1990) 307-311. In each assay, […] [^3 H]-glycine and 25 μg tissue were incubated with test compounds (10 μM in a total volume of 0.5 ml for 60 minutes on ice; incubations were terminated by centrifugation. Non-specific binding was defined as that remaining in the presence of 10 μM D-serine.

[2] = system: AMPA receptor ([^3 H]AMPA binding, crude membranes of rat forebrain); test: [^3 H]-AMPA displacement, EAA receptor binding; settings: 10 μM test compound, [^3 H]AMPA 5 nM, 100 mM KSCN
Method: as §1, §2
The binding of [^3 H]AMPA (5 nM) was conducted with crude membranes of rat forebrain in the presence of 100 mM KSCN, as described by Nielsen et al., "Studies on Receptor-Active Conformations of Excitatory Amino Acid Agonists and Antagonists," Eur. J. Med. Chem. Chim. Ther. 21:433-437 (1986). Nonspecific binding was determined with 10 μM nonlabeled AMPA.

[3] = system: kainate (KA) receptor ([^3 H]Kainate binding, washed synaptosomal membranes from the rat forebrain); test: [^3 H]-kainate displacement, EAA receptor binding; settings: 10 μM test compound, [^3 H]Kainate 5 nM, pH 7.4, 30 min
Method: as §1, §2
[^3 H]Kainate binding was performed using washed synaptosomal membranes from the rat forebrain, prepared as described by Simon et al., "Binding of [^3 H]Kainic Acid, an Analogue of L-Glutamate, to Brain Membranes," J. Neurochem. 26:141-147 (1976). [^3 H]Kainate (5 nM) was added to 50 mM Tris-HCl buffer (pH 7.4 at 4°) containing 200-300 μg/ml of tissue protein. Samples were incubated for 30 minutes in an ice bath and then rapidly filtered using a Brandel cell harvester and Whatman GF/C filters. Filters were washed twice with 3 ml of cold buffer. Nonspecific binding was determined using 100 μM nonlabeled kainate.

Compound | inhibition at 10 µM [1] [%] | AMPA % DSPL @ 10 μM [2] [%] | KA % DSPL @ 10 μM [3] [%]
O=c1[nH]c2c(Cl)cc(Cl)cc2c2ccnn12 [Compound 33, 7,9-dichloropyrazolo[1,5-c]quinazolin-5(6H)-one] | -3 | 5.1 | 7.4
Cc1cc2c3ccccc3[nH]c(=O)n2n1 [Compound 34, 2-methylpyrazolo[1,5-c]quinazolin-5(6H)-one] | 13 | 0.2 | 0.9
O=c1[nH]c2cc(C(F)(F)F)ccc2c2ccnn12 [Compound 35, 8-trifluoromethylpyrazolo[1,5-c]quinazolin-5(6H)-one] | 51 | 54.8 | 8.4
Clc1cc2ncc3nccn3c2cc1Cl [Compound 36, 7,8-dichloroimidazo[1,2-a]quinoxaline] | 88 | 53.3 | 23.6
O=c1[nH]c2ccc(Cl)cc2c2nc3ccccc3n12 [Compound 38, chlorobenzimidazo[1,2-a]quinazolin-4(5H)-one] | 3 | 4.1 | -0.8
